Biological target: T1, FPRL-1 (Homo sapiens, UniProt P25090)
T1 construct: expressed in transfected cells; host or cells: CHO-Gα16 cells stably expressing FPRL1
T1 sequence (P25090 1-351): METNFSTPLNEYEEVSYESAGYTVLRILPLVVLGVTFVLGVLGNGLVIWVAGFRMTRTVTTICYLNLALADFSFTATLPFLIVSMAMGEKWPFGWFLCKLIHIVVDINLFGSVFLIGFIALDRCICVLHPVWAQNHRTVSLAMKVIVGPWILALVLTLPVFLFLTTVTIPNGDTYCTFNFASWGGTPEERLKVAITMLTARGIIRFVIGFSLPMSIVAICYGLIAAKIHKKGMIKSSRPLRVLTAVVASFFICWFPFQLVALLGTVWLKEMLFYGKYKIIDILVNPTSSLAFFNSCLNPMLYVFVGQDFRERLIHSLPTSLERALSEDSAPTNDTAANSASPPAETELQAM
Test: FPRL-1 Ga16-CHO compound-induced calcium activity (FLIPR Tetra)
Format: cell-based
Conditions: CHO-Gα16 cells stably expressing FPRL1; calcium activity on FLIPR Tetra; tested at 0.61 to 10,000 nM; read-out: FPRL-1 Ga16-CHO EC50
Procedure: HEK-Gα16 and CHO-Gα16 cells stably expressing FPRL1 were cultured in (F12, 10% FBS, 1% PSA, 400 μg/ml geneticin and 50 μg/ml hygromycin) and HEK-Gqi5 cells stable expressing FPR1 were cultured in (DMEM high glucose, 10% FBS, 1% PSA, 400 μg/ml geneticin and 50 μg/ml hygromycin). In general, the day before the experiment, 18,000 cells/well were plated in a 384-well clear bottom poly-d-lysine coated plate. The following day the screening compound-induced calcium activity was assayed on the FLIPR^Tetra. The drug plates were prepared in 384-well microplates using the EP3 and the MultiPROBE robotic liquid handling systems. Compounds were tested at concentrations ranging from 0.61 to 10,000 nM. Results are expressed as EC50 (nM) and efficacy values.

CC(C)C1(CC(=O)NCC(N)=O)NC(=O)N(NC(=O)Nc2ccc(Br)cc2)C1=O (stereo not shown) [Compound 96, N-(2-Amino-2-oxoethyl)-2-(1-(3-(4-bromophenyl)ureido)-4-isopropyl-2,5-dioxoimidazolidin-4-yl)acetamide]
EC50: 51.3 nM

Source: patent publication US20130123215A1, “2,5-DIOXOIMIDAZOLIDIN-1-YL-3-PHENYLUREA DERIVATIVES AS FORMYL PEPTIDE RECEPTOR LIKE-1 (FPRL-1) RECEPTOR MODULATORS” (ALLERGAN, INC., priority 2011, published 2013)
